Measured values taken from patent US12692230B2, “(1 h-indol-5-yl)acrylamide derivatives as inhibitors of TEAD proteins and the hippo-YAP1/TAZ signaling cascade for the treatment of cancer” (Sanofi, priority 2020, dated 2026).

What follows are compounds tested on TEAD responsive promoter element (8XGTIIC-Luciferase; YAP1-TEAD and TAZ-TEAD activity) (assay: TEAD-Luciferase reporter assay). Conditions: Homo sapiens; luciferase activity in tumor cell lines with stable integration of the 8XGTIIC-Luciferase construct; 10 doses between 1 and 10000 nM, 48 hrs.
Assay type: cell-based
Description: TEAD-Luciferase Reporter Assay
Luciferase-based gene reporter assays were used, employing the TEAD responsive promoter element that are stably integrated to different human tumor cell lines in order to monitor YAP1-TEAD and TAZ-TEAD activity and to study YAP1/TAZ-TEAD activity modulation by small molecule compounds. Luciferase-based gene reporter assays employing the GAPDH promoter element and stably integrated to different human tumor cell lines are used as counter screen control cell lines.
Tumor cell lines with stable integration of the 8XGTIIC-Luciferase construct (Dupont et al., Nature 2011) or the GAPDH-Luciferase control plasmid, are seeded in culture medium in 96-well plates at a density of 8000 cells/well. Following an overnight incubation in a 37° C., 5% CO2 growth chamber, cells are treated with compounds described above at 10 doses ranging between 1 and 10000 nM for 48 hrs. After compound incubation, cells are lysed with Bright-Glo Luciferase Assay System (Promega E2620) and luciferase activity is measured using a luminescent plate reader.
The inhibitory activity of the compounds with respect to luciferase activity is given by the concentration which inhibits 50% of activity of non-treated cells. IC50s are determined with a nonlinear regression model on XLfit software analysis (IDBS, UK).

IC50 [nM] | SMILES
24 | C=CC(=O)Nc1ccc2c(ccn2Cc2cccc(C(F)(F)F)c2)c1 [Example 1, N-(1-(3-(trifluoromethyl)benzyl)-1H-indol-5-yl)acrylamide]
1090 | C=CC(=O)N(C)c1ccc2c(ccn2Cc2cccc(C(F)(F)F)c2)c1 [Example 2, N-methyl-N-(1-(3-(trifluoromethyl)benzyl)-1H-indol-5-yl)acrylamide]
25 | C=CC(=O)Nc1ccc2c(ccn2CCCCC(F)(F)F)c1 [Example 3, N-(1-(5,5,5-trifluoropentyl)-1H-indol-5-yl)acrylamide]
558 | C=CC(=O)Nc1ccc2c(ccn2C(C)c2cccc(C(F)(F)F)c2)c1 (stereo not drawn) [Example 4, N-(1-(1-(3-(trifluoromethyl)phenyl)ethyl)-1H-indol-5-yl)acrylamide]
61 | C=CC(=O)Nc1ccc2c(ccn2Cc2cccc(S(F)(F)(F)(F)F)c2)c1 [Example 5, N-(1-(3-(pentafluoro-λ6-sulfanyl)benzyl)-1H-indol-5-yl)acrylamide]
4040 | C=CC(=O)Nc1ccc2c(ccn2Cc2ccc(S(F)(F)(F)(F)F)cc2)c1 [Example 6, N-(1-(4-(pentafluoro-λ6-sulfanyl)benzyl)-1H-indol-5-yl)acrylamide]
≥ 10000 | C=CC(=O)Nc1ccc2c(ccn2Cc2ccc(OC(F)(F)F)cc2)c1 [Example 7, N-(1-(4-(trifluoromethoxy)benzyl)-1H-indol-5-yl)acrylamide]
296 | C=CC(=O)Nc1ccc2c(ccn2Cc2cccc(OC(F)(F)F)c2)c1 [Example 8, N-(1-(3-(trifluoromethoxy)benzyl)-1H-indol-5-yl)acrylamide]
143 | C=CC(=O)Nc1ccc2c(ccn2Cc2cccc(I)c2)c1 [Example 9, N-(1-(3-iodobenzyl)-1H-indol-5-yl)acrylamide]
7220 | C=CC(=O)Nc1ccc2c(ccn2Cc2cc(C(F)(F)F)ccc2F)c1 [Example 10, N-(1-(2-fluoro-5-(trifluoromethyl)benzyl)-1H-indol-5-yl)acrylamide]
30 | C=CC(=O)Nc1ccc2c(c1)c(C)cn2Cc1cccc(C(F)(F)F)c1 [Example 11, N-(3-methyl-1-(3-(trifluoromethyl)benzyl)-1H-indol-5-yl)acrylamide]
241 | C=CC(=O)Nc1ccc2c(ccn2Cc2cccc(OC)c2)c1 [Example 12, N-(1-(3-methoxybenzyl)-1H-indol-5-yl)acrylamide]
63 | C=CC(=O)Nc1ccc2c(c1)cc(C)n2Cc1cccc(C(F)(F)F)c1 [Example 13, N-(2-methyl-1-(3-(trifluoromethyl)benzyl)-1H-indol-5-yl)acrylamide]
236 | C=CC(=O)Nc1ccc2c(c1)c(C#N)cn2Cc1cccc(C(F)(F)F)c1 [Example 14, N-(3-cyano-1-(3-(trifluoromethyl)benzyl)-1H-indol-5-yl)acrylamide]
496 | C=CC(=O)Nc1ccc2c(ccn2Cc2cccc(C3CC3)c2)c1 [Example 15, N-(1-(3-cyclopropylbenzyl)-1H-indol-5-yl)acrylamide]
31 | C=CC(=O)Nc1ccc2c(c1)c(C)c(C)n2Cc1cccc(C(F)(F)F)c1 [Example 16, N-(2,3-dimethyl-1-(3-(trifluoromethyl)benzyl)-1H-indol-5-yl)acrylamide]
54 | C=CC(=O)Nc1ccc2c(ccn2Cc2cccc(C)c2)c1 [Example 17, N-(1-(3-methylbenzyl)-1H-indol-5-yl)acrylamide]
963 | C=CC(=O)Nc1ccc2c(ccn2Cc2ccccc2)c1 [Example 18, N-(1-Benzyl-1H-indol-5-yl)-acrylamide]
195 | C=CC(=O)Nc1cccc2c1ccn2Cc1cccc(C(F)(F)F)c1 [Example 19, N-(1-(3-(trifluoromethyl)benzyl)-1H-indol-4-yl)acrylamide]
7760 | CN(C)C/C=C/C(=O)Nc1cccc2c1ccn2Cc1cccc(C(F)(F)F)c1 [Example 20, (E)-4-(dimethylamino)-N-(1-(3-(trifluoromethyl)benzyl)-1H-indol-4-yl)but-2-enamide]
35 | C=CC(=O)Nc1ccc2ccn(Cc3cccc(C(F)(F)F)c3)c2c1 [Example 21, N-(1-(3-(trifluoromethyl)benzyl)-1H-indol-6-yl)acrylamide]
1400 | C=CC(=O)Nc1ccc2c(ccn2CC2CCC(F)(F)CC2)c1 [Example 22, N-(1-((4,4-difluorocyclohexyl)methyl)-1H-indol-5-yl)acrylamide]

IC50 [nM] | SMILES
369 | C=CC(=O)Nc1ccc2c(ccn2CC2CCOCC2)c1 [Example 23, N-(1-((tetrahydro-2H-pyran-4-yl)methyl)-1H-indol-5-yl)acrylamide]
1000 | C=CC(=O)Nc1ccc2c(ccn2CC2CCC(C(F)(F)F)CC2)c1 (stereo not drawn) [Example 24, N-(1-((4-(trifluoromethyl)cyclohexyl)methyl)-1H-indol-5-yl)acrylamide]
1000 | C=CC(=O)Nc1ccc2c(ccn2CC2CC3(C2)CC3(F)F)c1 (stereo not drawn) [Example 25, N-(1-((1,1-difluorospiro[2.3]hexan-5-yl)methyl)-1H-indol-5-yl)acrylamide]
357 | C=CC(=O)Nc1ccc2c(ccn2CC2CCC(F)C2)c1 (stereo not drawn) [Example 26, N-(1-((3-fluorocyclopentyl)methyl)-1H-indol-5-yl)acrylamide]
≥ 10000 | C=CC(=O)Nc1ccc2c(ccn2CC2CCCCC2)c1 [Example 27, N-(1-(cyclohexylmethyl)-1H-indol-5-yl)acrylamide]
≥ 10000 | C=CC(=O)Nc1ccc2c(ccn2CC2CC(C(F)(F)F)C2)c1 (stereo not drawn) [Example 28, N-(1-((3-(trifluoromethyl)cyclobutyl)methyl)-1H-indol-5-yl)acrylamide]
43 | C=CC(=O)Nc1ccc2c(ccn2CC2CCC(F)(F)C2)c1 (stereo not drawn) [Example 29, N-(1-((3,3-difluorocyclopentyl)methyl)-1H-indol-5-yl)acrylamide]
≥ 10000 | C=CC(=O)Nc1ccc2c(ccn2Cc2ccc(-c3ccccc3)cc2)c1 [Example 30, N-(1-([1,1′-biphenyl]-4-ylmethyl)-1H-indol-5-yl)acrylamide]
20 | C=CC(=O)Nc1ccc2c(ccn2Cc2ccc(-c3cccc(C(F)(F)F)c3)cc2)c1 [Example 31, N-(1-((3′-(trifluoromethyl)-[1,1′-biphenyl]-4-yl)methyl)-1H-indol-5-yl)acrylamide]
7840 | C=CC(=O)Nc1ccc2c(ccn2Cc2ccc(-c3ccc(C(F)(F)F)cc3)cc2)c1 [Example 32, N-(1-((4′-(trifluoromethyl)-[1,1′-biphenyl]-4-yl)methyl)-1H-indol-5-yl)acrylamide]
41 | C=CC(=O)Nc1ccc2c(ccn2[C@H]2CC[C@H](C(F)(F)F)CC2)c1 [Example 33, Trans-N-[1-[4-(trifluoromethyl)cyclohexyl]indol-5-yl]acrylamide]
≥ 10000 | C=CC(=O)Nc1ccc2c(ccn2[C@H]2CC[C@@H](C(F)(F)F)CC2)c1 [Example 34, Cis-N-[1-[4-(trifluoromethyl)cyclohexyl]indol-5-yl]acrylamide]
2330 | C=CC(=O)Nc1ccc2c(ccn2CC2CCN(c3ccc(C(F)(F)F)cc3)CC2)c1 [Example 35, N-(1-((1-(4-(trifluoromethyl)phenyl)piperidin-4-yl)methyl)-1H-indol-5-yl)acrylamide]
4560 | C=CC(=O)Nc1ccc2c(ccn2CCN(C)CC(F)(F)F)c1 [Example 36, N-(1-(2-(methyl(2,2,2-trifluoroethyl)amino)ethyl)-1H-indol-5-yl)acrylamide]
> 10000 | C=CC(=O)Nc1ccc2c(ccn2CCOCC(F)(F)F)c1 [Example 37, N-(1-(2-(2,2,2-trifluoroethoxy)ethyl)-1H-indol-5-yl)acrylamide]
1500 | C=CC(=O)Nc1ccc2c(ccn2C2CCN(CC(F)(F)F)CC2)c1 [Example 38, N-(1-(1-(2,2,2-trifluoroethyl)piperidin-4-yl)-1H-indol-5-yl)acrylamide]
84 | C=CC(=O)Nc1ccc2c(ccn2C2CCC(F)(F)CC2)c1 [Example 39, N-(1-(4,4-difluorocyclohexyl)-1H-indol-5-yl)acrylamide]
≥ 10000 | C=CC(=O)Nc1ccc2c(ccn2C2CCN(c3ccc(C(F)(F)F)cc3)CC2)c1 [Example 40, N-(1-(1-(4-(trifluoromethyl)phenyl)piperidin-4-yl)-1H-indol-5-yl)acrylamide]
≥ 10000 | C=CC(=O)Nc1ccc2c(ccn2CCCN2CCC(F)(F)C2)c1 [Example 41, N-(1-(3-(3,3-difluoropyrrolidin-1-yl)propyl)-1H-indol-5-yl)acrylamide]
36 | C=CC(=O)Nc1ccc2c(ccn2-c2cccc(C(F)(F)F)c2)c1 [Example 43, N-(1-(3-(trifluoromethyl)phenyl)-1H-indol-5-yl)acrylamide]
8 | C=CC(=O)Nc1ccc2c(ccn2-c2ccc(C(F)(F)F)cc2)c1 [Example 44, N-(1-(4-(trifluoromethyl)phenyl)-1H-indol-5-yl)acrylamide]
106 | C=CC(=O)Nc1ccc2c(ccn2-c2ccc(C(F)(F)F)nc2)c1 [Example 45, N-(1-(6-(trifluoromethyl)pyridin-3-yl)-1H-indol-5-yl)acrylamide]

SMILES | IC50 [nM]
C=CC(=O)Nc1ccc2c(ccn2Cc2ccc([Si](C)(C)C)cc2)c1 [Example 42, N-(1-(4-(trimethylsilyl)benzyl)-1H-indol-5-yl)acrylamide] | 211
